Experimental data reported in patent US12662451B2, “Chemical compounds and uses thereof” (GLAXOSMITHKLINE INTELLECTUAL PROPERTY (NO.4) LIMITED, priority 2023, dated 2026).
Where a name gives a salt, the structure may show the parent alone. Read-outs that look alike come from different tables or passages of the source.

Columns and labels:
[1] = system: SW48 human colorectal cancer cells; test: Calculated free drug potency in SW48 cell assay, corrected with media free fraction (Example C); type: cell-based; settings: Homo sapiens, SW48, SW48 pCC50 corrected with measured free fraction in cell assay media
Method in brief: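 Free drug potency derives from correcting SW48 assay concentrations with the unbound fraction in medium. That fraction came from RED against pH 7.4 PBS, 1 μM nominal compound, 4 h at 37 °C, quantified by LC-MS/MS peak area ratios at T=240 versus T=0 min.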

[2] = system: SW48 human colorectal cancer cells (MSI-H cancer cells); test: SW48 cell viability, CellTiter-Glo, 120 hours (Example B); settings: Homo sapiens
[3] = biological target: T1, recombinant full-length WRN protein (1-1432) (Homo sapiens, UniProt Q14191); test: WRN unwinding activity, fluorogenic 384-well assay (Example A); type: biochemical; settings: WRN unwinding activity, 4 hr; Table 2; read-out: 4 hr UNW pIC50 (converted)
T1 construct: recombinant full-length WRN protein (1-1432)
T1 sequence (Q14191 whole entry): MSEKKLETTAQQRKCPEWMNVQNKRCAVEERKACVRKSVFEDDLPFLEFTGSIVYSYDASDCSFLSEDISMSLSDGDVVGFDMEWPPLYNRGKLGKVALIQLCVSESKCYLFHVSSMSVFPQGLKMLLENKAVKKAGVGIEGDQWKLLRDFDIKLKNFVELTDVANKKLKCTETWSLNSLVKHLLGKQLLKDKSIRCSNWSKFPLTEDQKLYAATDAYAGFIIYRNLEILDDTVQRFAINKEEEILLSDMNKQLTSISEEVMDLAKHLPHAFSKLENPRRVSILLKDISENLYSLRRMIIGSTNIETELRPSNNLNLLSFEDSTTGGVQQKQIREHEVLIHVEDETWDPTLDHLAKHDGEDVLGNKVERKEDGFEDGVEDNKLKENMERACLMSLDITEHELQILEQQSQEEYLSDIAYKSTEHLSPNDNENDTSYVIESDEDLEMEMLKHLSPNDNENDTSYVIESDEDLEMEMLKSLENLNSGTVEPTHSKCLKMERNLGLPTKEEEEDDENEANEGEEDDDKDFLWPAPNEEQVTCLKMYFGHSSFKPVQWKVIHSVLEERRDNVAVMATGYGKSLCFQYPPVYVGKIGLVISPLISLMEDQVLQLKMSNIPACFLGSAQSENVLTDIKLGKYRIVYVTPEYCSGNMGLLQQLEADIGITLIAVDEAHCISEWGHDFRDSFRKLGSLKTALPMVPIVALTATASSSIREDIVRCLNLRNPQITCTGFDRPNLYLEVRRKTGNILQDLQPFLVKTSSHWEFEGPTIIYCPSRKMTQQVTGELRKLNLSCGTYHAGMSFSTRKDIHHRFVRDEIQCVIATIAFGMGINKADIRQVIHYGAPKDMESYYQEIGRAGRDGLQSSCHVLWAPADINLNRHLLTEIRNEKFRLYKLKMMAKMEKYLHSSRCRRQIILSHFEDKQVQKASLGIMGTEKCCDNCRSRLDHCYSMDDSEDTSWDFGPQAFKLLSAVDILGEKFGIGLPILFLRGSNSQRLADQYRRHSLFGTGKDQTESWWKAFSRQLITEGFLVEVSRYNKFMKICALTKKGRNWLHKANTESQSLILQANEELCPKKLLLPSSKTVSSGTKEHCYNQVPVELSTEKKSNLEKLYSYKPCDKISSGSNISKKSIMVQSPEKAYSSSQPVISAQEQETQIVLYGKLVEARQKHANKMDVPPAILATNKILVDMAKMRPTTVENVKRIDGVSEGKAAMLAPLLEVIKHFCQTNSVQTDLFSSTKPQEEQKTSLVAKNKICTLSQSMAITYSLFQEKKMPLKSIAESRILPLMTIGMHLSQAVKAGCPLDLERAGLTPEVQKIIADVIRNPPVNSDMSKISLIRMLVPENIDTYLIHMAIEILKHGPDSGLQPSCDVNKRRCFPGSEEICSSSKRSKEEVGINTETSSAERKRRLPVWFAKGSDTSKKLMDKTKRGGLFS
Method in brief: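 Read-out is end-point unwinding of a fluorophore/quencher duplex (ex 525, em 598 nm) after 60 min with 200 μM ATP and 12 nM DNA (2× stocks), EDTA stop. Compound first sat 4 h with 200 pM WRN (2× stock) in pH 8.0 Tris buffer; four-parameter fit gives pIC50.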

[4] = Cell culture media unbound percentage and stability by rapid equilibrium dialysis (Example C); type: in vitro ADME; settings: bovine, cell assay medium (RPMI-1640 with 10% fetal bovine serum), pH 7.4, rapid equilibrium dialysis, 4 hours at 37° C., read-out: Cell Culture Media Binding (% unbound)
Method in brief: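 Percent unbound in cell assay medium came from the LC-MS/MS receiver:donor peak area ratio, with stability taken as the 240 min over 0 min ratio. Set-up: 1 μM nominal compound in medium dialysed against pH 7.4 PBS (100 mM phosphate, 150 mM NaCl), 4 h, 37° C, shaken, in triplicate.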

[5] = SW48, 120 h, read-out: SW48 pCC50, SW48 cell viability, 120 hours incubation (converted), Table 2
[6] = SW48, read-out: SW48 pCC50, measured potency from Example B, as repeated in Table 3 (converted)

SMILES | IC50 [3] | fraction unbound at 4 h, 1 µM [4] | CC50 [1] | CC50 [2, 5] | CC50 [2, 6]
Cc1nc2cc(S(=O)(=O)N(C)c3ccc([C@H]4CCC[C@@H](C(=O)Nc5ccc(C(F)(F)F)cc5F)[C@@H]4C(=O)O)cc3)cc([C@H]3CCCNC3)c2n1C (relative stereo) [Example 269, (1R,2R,6S)-2-((2-fluoro-4-(trifluoromethyl)phenyl)carbamoyl)-6-(4-((N,1,2-trimethyl-7-((R*)-piperidin-3-yl)-1H-benzo[d]imidazole)-5-sulfonamido)phenyl)cyclohexane-1-carboxylic acid hydrochloride] | 0.000794 µM | 0.257 | 0.646 µM | 2.51 µM | 2.51 µM
CN(c1ccc([C@H]2CCC[C@@H](C(=O)Nc3ccc(C(F)(F)F)cc3F)[C@@H]2C(=O)O)cc1)S(=O)(=O)c1ccc2scnc2c1 [Example 101, (1R,2R,6S)-2-((2-fluoro-4-(trifluoromethyl)phenyl)carbamoyl)-6-(4-(N-methylbenzo[d]thiazole-5-sulfonamido)phenyl)cyclohexane-1-carboxylic acid] | 0.00501 µM | 0.0349 | 0.0437 µM | 1.26 µM | 1.26 µM
Cc1nnc(-c2cc([C@@H]3CCC[C@H](C(=O)Nc4ccc(C(F)(F)F)cc4F)[C@H]3C(=O)O)ccc2C(F)(F)F)o1 (single isomer, unassigned) [Example 245] | 0.00794 µM | 0.0971 | 0.776 µM | 7.94 µM | 7.94 µM
CN(c1ccc([C@H]2CCC[C@@H](C(=O)Nc3ccc(C(F)(F)F)cc3F)[C@@H]2C(=O)O)cc1)S(=O)(=O)c1ccc2c(c1)nc(N)n2C [Example 266, (1R,2S,6R)-2-(4-((2-amino-N,1-dimethyl-1H-benzo[d]imidazole)-5-sulfonamido)phenyl)-6-((2-fluoro-4-(trifluoromethyl)phenyl)carbamoyl)cyclohexane-1-carboxylic acid] | 0.00126 µM | 0.141 | 0.0562 µM | 0.398 µM | 0.398 µM
CCO[C@@H]1C[C@H](c2ccc(N(C)S(=O)(=O)c3cnc4c(c3)nc(C)n4C)cc2)[C@@H](C(=O)O)[C@H](C(=O)Nc2ccc(C(F)(F)F)cc2F)C1 [Example 141, (1R,2R,4R,6S)-4-ethoxy-2-((2-fluoro-4-(trifluoromethyl)phenyl)carbamoyl)-6-(4-((N,2,3-trimethyl-3H-imidazo[4,5-b]pyridine)-6-sulfonamido)phenyl)cyclohexane-1-carboxylic acid] | 0.00316 µM | 0.112 | 0.0708 µM | 0.631 µM | 0.631 µM
Cc1nc2cc(S(=O)(=O)N(C)c3ccc([C@@H]4CCC[C@H](C(=O)Nc5ccc(C(F)(F)F)cn5)[C@H]4C(=O)O)cc3)ccc2n1C (relative stereo) [Example 168, rel-(1R,2R,6S)-2-((5-(trifluoromethyl)pyridin-2-yl)carbamoyl)-6-(4-((N,1,2-trimethyl-1H-benzo[d]imidazole)-5-sulfonamido)phenyl)cyclohexane-1-carboxylic acid] | 0.00251 µM | 0.0585 | 0.0372 µM | 0.631 µM | 0.631 µM
Cc1nc2cc(S(=O)(=O)N(C)c3ccc([C@H]4C[C@H](N5CC[C@@H](F)C5)C[C@@H](C(=O)Nc5ccc(C(F)(F)F)cc5F)[C@@H]4C(=O)O)cc3)ccc2n1C (stereo in doubt) [Example 383, rel-(1R*,2R*,4S*,6S*)-2-((2-fluoro-4-(trifluoromethyl)phenyl)carbamoyl)-4-((R)-3-fluoropyrrolidin-1-yl)-6-(4-((N,1,2-trimethyl-1H-benzo[d]imidazole)-5-sulfonamido)phenyl)cyclohexane-1-carboxylic acid] | 0.00794 µM | 0.0589 | 0.468 µM | 7.94 µM | 7.94 µM
Cc1nc2cc(S(=O)(=O)N(C)c3ccc([C@H]4CCC[C@@H](C(=O)Nc5ccc(C(F)(F)F)cc5F)[C@@H]4C(=O)O)cc3)cc(F)c2n1C [Example 126, (1R,2R,6S)-2-((2-fluoro-4-(trifluoromethyl)phenyl)carbamoyl)-6-(4-((7-fluoro-N, 1,2-trimethyl-1H-benzo[d]imidazole)-5-sulfonamido)phenyl)cyclohexane-1-carboxylic acid] | 0.00631 µM | 0.058 | 0.0363 µM | 0.631 µM | 0.631 µM
Cc1nc2cc(S(=O)(=O)N(C)c3ccc([C@@H]4CCC[C@H](C(=O)Nc5c(F)cc(C(C)C)cc5F)[C@H]4C(=O)O)cc3)ccc2n1C (single isomer, unassigned) [Example 171] | 0.00316 µM | 0.0634 | 0.0501 µM | 0.794 µM | 0.794 µM
COc1cccc(S(=O)(=O)N(C)c2ccc([C@H]3CCC[C@@H](C(=O)Nc4ccc(C(F)(F)F)cc4F)[C@@H]3C(=O)O)cc2)c1 (racemic) [Example 82] | 0.00501 µM | 0.0147 | 0.0741 µM | 5.01 µM | 5.01 µM

More lines, main results first:

IC50 [3] | fraction unbound at 4 h, 1 µM [4] | SMILES | CC50 [1] | CC50 [2, 5] | CC50 [2, 6]
0.00398 µM | 0.0411 | CCO[C@H]1C[C@@H](COc2ccc(C(F)(F)F)cc2)[C@H](C(=O)O)[C@@H](c2ccc(N(C)S(=O)(=O)c3ccc4c(c3)nc(C)n4C)cc2)C1 (single isomer, unassigned) [Example 221] | 0.0813 µM | 2 µM | 2 µM
0.00158 µM | 0.156 | Cc1nc2cc(S(=O)(=O)N(C)c3ccc([C@H]4C[C@@H](C#N)C[C@@H](C(=O)Nc5ccc(C(F)(F)F)cc5F)[C@@H]4C(=O)O)cc3)ccc2n1C (single isomer, unassigned) [Example 287] | 0.0617 µM | 0.398 µM | 0.398 µM
0.00398 µM | 0.0085 | CN(c1ccc([C@H]2CCC[C@@H](C(=O)Nc3ccc(C(F)(F)F)cc3F)[C@@H]2C(=O)O)cc1)S(=O)(=O)c1ccc2ccn(C)c2c1 [Example 110, (1R,2S,6R)-2-(4-((N,1-dimethyl-1H-indole)-6-sulfonamido)phenyl)-6-((2-fluoro-4-(trifluoromethyl)phenyl)carbamoyl)cyclohexane-1-carboxylic acid] | 0.0107 µM | 1.26 µM | 1.26 µM
0.00398 µM | 0.0452 | Cc1nc2c(F)c(S(=O)(=O)N(C)c3ccc([C@H]4CCC[C@@H](C(=O)Nc5ccc(C(F)(F)F)cc5F)[C@@H]4C(=O)O)cc3)ccc2n1C [Example 128, (1R,2R,6S)-2-((2-fluoro-4-(trifluoromethyl)phenyl)carbamoyl)-6-(4-((4-fluoro-N,1,2-trimethyl-1H-benzo[d]imidazole)-5-sulfonamido)phenyl)cyclohexane-1-carboxylic acid] | 0.0457 µM | 1 µM | 1 µM
0.00158 µM | 0.406 | Cc1nc2cc(S(=O)(=O)N(C)c3ccc([C@H]4C[C@@H](N)C[C@@H](C(=O)Nc5ccc(C(F)(F)F)cc5F)[C@@H]4C(=O)O)cc3)ccc2n1C (stereo in doubt) [Example 301, rel-(1R,2R,4R,6S)-4-amino-2-((2-fluoro-4-(trifluoromethyl)phenyl)carbamoyl)-6-(4-((N,1,2-trimethyl-1H-benzo[d]imidazole)-5-sulfonamido)phenyl)cyclohexane-1-carboxylic acid] | 1.62 µM | 3.98 µM | 3.98 µM
0.0631 µM | 0.384 | COCCO[C@@H]1C[C@H](C(=O)Nc2ccc(C(F)(F)F)cc2F)[C@@H](C(=O)O)[C@H](c2ccc(N(C)S(=O)(=O)c3ccc4c(c3)nc(C)n4C)cc2)C1 (stereo in doubt) [Example 315, rel-(1R,2R,4R,6S)-2-((2-fluoro-4-(trifluoromethyl)phenyl)carbamoyl)-4-(2-methoxyethoxy)-6-(4-((N,1,2-trimethyl-1H-benzo[d]imidazole)-5-sulfonamido)phenyl)cyclohexane-1-carboxylic acid] | 3.8 µM | 10 µM | –
0.0398 µM | 0.0334 | Cc1nc2cc(S(=O)(=O)N(C)c3ccc([C@H]4C[C@H](N5CC[C@H](F)C5)C[C@@H](C(=O)Nc5ccc(C(F)(F)F)cc5F)[C@@H]4C(=O)O)cc3)ccc2n1C (stereo in doubt) [Example 380, rel-(1R*,2R*,4S*,6S*)-2-((2-fluoro-4-(trifluoromethyl)phenyl)carbamoyl)-4-((S)-3-fluoropyrrolidin-1-yl)-6-(4-((N,1,2-trimethyl-1H-benzo[d]imidazole)-5-sulfonamido)phenyl)cyclohexane-1-carboxylic acid] | 0.331 µM | 10 µM | –
